According to patent US20080021038A1, “Novel Piperidine/8-Azabicyclo [3.2.1.] Octan Derivatives As Modulators Of Chemokine Receptor Ccr5” (priority 2004, published 2008):

target: recombinant human CCR5 receptor (Homo sapiens, UniProt P51681); experiment: MIP-1α radioligand binding assay (scintillation proximity); settings: displacement of 0.1 nM iodinated MIP-1α; membranes from Chinese hamster ovary cells expressing recombinant human CCR5; average if tested more than once
Description: The ability of compounds to inhibit the binding of MIP-1α was assessed by an in vitro radioligand binding assay. Membranes were prepared from Chinese hamster ovary cells which expressed the recombinant human CCR5 receptor. These membranes were incubated with 0.1 nM iodinated MIP-1α, scintillation proximity beads and various concentrations of the compounds of the invention in 96-well plates. The amount of iodinated MIP-1α bound to the receptor was determined by scintillation counting. Competition curves were obtained for compounds and the concentration of compound which displaced 50% of bound iodinated MIP-1α was calculated (IC50).
In Table X the results are presented as Pic50 values. A Pic50 value is the negative log (to base 10) of the IC50 result, so an IC50 of 1 μM (that is 1×10^−6M) gives a Pic50 of 6. If a compound was tested more than once then the data below is an average of the probative tests results.

recombinant human CCR5 receptor, sequence (P51681 whole entry): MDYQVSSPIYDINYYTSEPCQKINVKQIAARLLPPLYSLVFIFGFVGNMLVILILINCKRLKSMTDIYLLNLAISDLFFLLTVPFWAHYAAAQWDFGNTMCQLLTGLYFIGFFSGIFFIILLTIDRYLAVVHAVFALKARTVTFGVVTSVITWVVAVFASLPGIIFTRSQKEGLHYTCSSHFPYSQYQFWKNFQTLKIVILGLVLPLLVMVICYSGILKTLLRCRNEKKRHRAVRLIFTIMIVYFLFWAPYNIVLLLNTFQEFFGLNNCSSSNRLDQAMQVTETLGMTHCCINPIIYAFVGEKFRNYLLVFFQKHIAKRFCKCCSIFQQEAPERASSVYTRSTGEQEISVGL

SMILES	IC50
CC1(CCS(=O)(=O)c2ccc(S(C)(=O)=O)cc2)CCN(CC[C@H](c2ccc(S(C)(=O)=O)cc2)c2cc(F)cc(F)c2)CC1 [Table I Compound 1, 1-{(3R)-3-(3,5-difluorophenyl)-3-[4-(methylsulfonyl)phenyl]propyl}-4-methyl-4-(2-{[4-(methylsulfonyl)phenyl]sulfonyl}ethyl)piperidine]	0.251 nM
CC1(CCS(=O)(=O)c2ccc(S(C)(=O)=O)cc2)CCN(CC[C@@H](c2ccccc2)N2CCN(S(C)(=O)=O)CC2)CC1 [Table II Compound 18, 1-{(1S)-3-[4-methyl-4-(2-{[4-(methylsulfonyl)phenyl]sulfonyl}ethyl)piperidin-1-yl]-11-phenylpropyl)-4-(methylsulfonyl)piperazine]	0.631 nM
CC1(CCS(=O)(=O)c2ccc(S(C)(=O)=O)cc2)CCN(CC[C@@H](c2cc(F)cc(F)c2)N2CCN(S(C)(=O)=O)CC2)CC1 [Table II Compound 19, 1-{(1S)-1-(3,5-difluorophenyl)-3-[4-methyl-4-(2-{[4-(methylsulfonyl)phenyl]sulfonyl}ethyl)piperidin-1-yl]propyl}-4-(methylsulfonyl)piperazine]	2 nM
COc1ccc(S(=O)(=O)CCC2(C)CCN(CC[C@@H](c3cc(F)cc(F)c3)N3CCN(S(C)(=O)=O)CC3)CC2)cc1 [Table II Compound 20, 1-[(1S)-1-(3,5-difluorophenyl)-3-(4-{2-[(4-methoxyphenyl)sulfonyl]ethyl}-4-methylpiperidin-1-yl)propyl]-4-(methylsulfonyl)piperazine]	5.01 nM
CC1(CCS(=O)(=O)C2CCN(C(=O)OCc3ccccc3)CC2)CCN(CC[C@@H](c2cc(F)cc(F)c2)C2CCN(S(C)(=O)=O)CC2)CC1 [Table VIII Compound 1, benzyl 4-{[2-(1-{(3R)-3-(3,5-difluorophenyl)-3-[1-(methylsulfonyl)piperidin-4-yl]propyl}-4-methylpiperidin-4-yl)ethyl]sulfonyl}piperidine-1-carboxylate]	7.94 nM
CC1(CCS(=O)(=O)C2CCN(S(C)(=O)=O)CC2)CCN(CC[C@@H](c2cc(F)cc(F)c2)C2CCN(S(C)(=O)=O)CC2)CC1 [Table VIII Compound 2, 1-{(3R)-3-(3,5-difluorophenyl)-3-[1-(methylsulfonyl)piperidin-4-yl]propyl}-4-methyl-4-(2-{[1-(methylsulfonyl)piperidin-4-yl]sulfonyl}ethyl)piperidine]	2 nM
